IC50 data for 18 compounds are collected here from patent US9157077B2, “Aminopyrimidine kinase inhibitors” (Jasco Pharmaceuticals, LLC, priority 2009, dated 2015).

Assay in all cases: IC50 of Compound (nM) (ATP present at Km of enzyme), Table 30
What all share (format): biochemical

Test [1] deals with Enzyme (kinases of Table 30) (Homo sapiens, UniProt P11309). Particulars: Pim-1(h), ATP present at Km of enzyme; read-out: IC50 of Compound, Pim-1(h).
The target of test [2] is T1, Enzyme (kinases of Table 30) (Homo sapiens, UniProt P68400).
T1 construct: IC50 of Compound, CK2(h); other: CK2(h), ATP present at Km of enzyme
T1 sequence (P68400 whole entry): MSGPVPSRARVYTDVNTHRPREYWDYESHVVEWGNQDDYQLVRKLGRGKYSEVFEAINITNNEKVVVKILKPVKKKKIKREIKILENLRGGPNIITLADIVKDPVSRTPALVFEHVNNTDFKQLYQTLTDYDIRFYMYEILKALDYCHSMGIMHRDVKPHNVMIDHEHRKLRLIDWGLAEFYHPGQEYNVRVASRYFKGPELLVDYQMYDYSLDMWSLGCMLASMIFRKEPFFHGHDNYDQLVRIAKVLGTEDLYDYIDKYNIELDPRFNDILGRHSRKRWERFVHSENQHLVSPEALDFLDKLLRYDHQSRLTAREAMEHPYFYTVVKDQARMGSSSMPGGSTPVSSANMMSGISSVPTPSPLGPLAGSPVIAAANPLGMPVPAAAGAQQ
The following applies: CK2(h), ATP present at Km of enzyme.

For test [3], the target named is Enzyme (kinases of Table 30) (Homo sapiens, UniProt Q86V86). Particulars: Pim-3(h), ATP present at Km of enzyme; read-out: IC50 of Compound, Pim-3(h).
The target of test [4] is Enzyme (kinases of Table 30) (Homo sapiens, UniProt Q9P1W9). The following applies: Pim-2(h), ATP present at Km of enzyme; read-out: IC50 of Compound, Pim-2(h).
Enzyme (kinases of Table 30) (Homo sapiens, UniProt Q9P1W9), sequence (Q9P1W9 whole entry): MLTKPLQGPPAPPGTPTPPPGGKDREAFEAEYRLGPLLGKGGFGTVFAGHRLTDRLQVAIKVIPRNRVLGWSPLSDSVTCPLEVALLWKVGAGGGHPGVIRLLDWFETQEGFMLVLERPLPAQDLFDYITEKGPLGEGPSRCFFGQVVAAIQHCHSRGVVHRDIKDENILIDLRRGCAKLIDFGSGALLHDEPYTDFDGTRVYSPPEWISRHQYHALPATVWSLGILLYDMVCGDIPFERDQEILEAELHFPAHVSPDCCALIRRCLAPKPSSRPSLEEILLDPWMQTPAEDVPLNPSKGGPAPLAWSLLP

Enzyme (kinases of Table 30) (Homo sapiens, UniProt P11309), sequence (P11309 whole entry): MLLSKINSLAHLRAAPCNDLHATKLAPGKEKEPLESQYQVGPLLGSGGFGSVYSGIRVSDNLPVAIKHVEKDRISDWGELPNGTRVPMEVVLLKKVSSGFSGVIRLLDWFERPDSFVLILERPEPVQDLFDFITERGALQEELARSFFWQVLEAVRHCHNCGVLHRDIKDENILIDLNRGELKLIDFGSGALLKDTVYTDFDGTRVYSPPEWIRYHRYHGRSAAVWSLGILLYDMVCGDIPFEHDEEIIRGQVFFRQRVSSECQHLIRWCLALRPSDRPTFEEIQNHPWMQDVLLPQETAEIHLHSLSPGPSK

On to `O=C1NC(=O)/C(=C/c2ccnc(NCC3CCNCC3)n2)S1` [compound 147], for which the IC50 turned out to be 258 nM in test [1], 134 nM in test [2], 31 nM in test [3] and 90 nM in test [4].

As for `O=C1NC(=O)/C(=C/c2ccnc(N3CCc4[nH]c5ccccc5c4C3)n2)S1` [compound 91], the IC50 stood at 255 nM in test [1], 222 nM in test [2], 1000 nM in test [3] and 127 nM in test [4].

In the case of `O=C1NC(=O)/C(=C/c2ccnc(N3CCC(CCO)CC3)n2)S1` [compound 106], the IC50 was determined as 166 nM in test [1], 361 nM in test [2], 298 nM in test [3] and 127 nM in test [4].

Regarding `O=C1NC(=O)/C(=C/c2ccnc(N3CCC(CNCC4CCN4)CC3)n2)S1` (stereo not drawn) [compound 208], the IC50 in test [1] stood at 288 nM; in test [2] it was 129 nM; in test [3], 65 nM; in test [4], 43 nM.

Take `O=C1NC(=O)/C(=C/c2ccnc(N[C@H]3CCCNC3)n2)S1` [compound 144]: the IC50 in test [1] turned out to be 78 nM; in test [2] it was 23 nM; in test [3], 9 nM; in test [4] it was 18 nM.

For the compound `CN1CCC(CNc2nccc(/C=C3\SC(=O)NC3=O)n2)CC1` [compound 92], the 50% inhibitory concentration (IC50) is 628 nM in test [1], 186 nM in test [2], 31 nM in test [3] and 228 nM in test [4].

For the compound `O=C1NC(=O)/C(=C/c2ccnc(N3CCC(CO)CC3)n2)S1` [compound 98], the half-maximal inhibitory concentration (IC50) in test [1] came out at 204 nM; in test [2], 422 nM; in test [3], 169 nM; in test [4], 136 nM.

As to `O=C1NC(=O)/C(=C/c2ccnc(N3CCC(CNc4ccc5ccccc5n4)CC3)n2)S1` [compound 219], the IC50 amounted to 475 nM in test [1], 476 nM in test [2], 249 nM in test [3] and 146 nM in test [4].

Consider `Nc1ccc2c(c1)CN(c1nccc(/C=C3\SC(=O)NC3=O)n1)CC2` [compound 90], for which the IC50 in test [1] stood at 97 nM; in test [2], 291 nM; in test [3], 419 nM; in test [4], 89 nM.

Turning to `O=C1NC(=O)/C(=C/c2ccnc(N3CCC(CNCc4cccc(-c5cccs5)n4)CC3)n2)S1` [compound 205], the IC50 in test [1] stood at 54 nM; in test [3], 38 nM; in test [4], 199 nM.

With `O=C1NC(=O)/C(=C/c2ccnc(N3CCC(CNCc4cccc(-c5ccc(F)cc5)n4)CC3)n2)S1` [compound 204], the IC50 in test [1] was 99 nM; in test [3], 109 nM; in test [4], 217 nM.

As to `CCCCN(C)c1nccc(/C=C2\SC(=O)NC2=O)n1` [compound 87], the IC50 is 295 nM in test [1], 261 nM in test [2], 263 nM in test [3] and 80 nM in test [4].

Take `O=C1NC(=O)/C(=C/c2ccnc(N3CCC(CNCc4ccncc4)CC3)n2)S1` [compound 177]: the IC50 was 96 nM in test [1], 705 nM in test [2], 22 nM in test [3] and 87 nM in test [4].

Consider `O=C1NC(=O)/C(=C/c2ccnc(N3CCC(CNCc4cccnc4)CC3)n2)S1` [compound 176], for which the concentration for half-maximal inhibition (IC50) is 487 nM in test [1], 669 nM in test [2], 18 nM in test [3] and 108 nM in test [4].

With `NCc1cccc(CNc2nccc(/C=C3\SC(=O)NC3=O)n2)c1` [compound 159], the figures for the half-maximal inhibitory concentration (IC50) in test [1], in test [3] and in test [4] were above 1000 nM, 231 nM and 104 nM, respectively.

Take `CN(c1nccc(/C=C2\SC(=O)NC2=O)n1)C1CCCCC1` [compound 119]: the IC50 in test [1] is 186 nM; in test [2], 176 nM; in test [3] it was 267 nM; in test [4], 16 nM.

Take `CN(CC1CCNCC1)c1nccc(/C=C2\SC(=O)NC2=O)n1` [compound 151]: the concentration for half-maximal inhibition (IC50) in test [1] is 246 nM; in test [2] it was 415 nM; in test [3], 171 nM; in test [4] it was 98 nM.

As to `CN(c1nccc(/C=C2\SC(=O)NC2=O)n1)[C@H]1CCCNC1` [compound 143], the IC50 was 20 nM in test [1], 66 nM in test [2], 3 nM in test [3] and 5 nM in test [4].

Usually IC50 stands for the point on the concentration scale where inhibition reaches its midpoint.
